Data on one substance can be found in US20170362283A1, “NISIN-BASED COMPOUNDS AND USE THEREOF IN THE TREATMENT OF BACTERIAL INFECTIONS” (UNIVERSITEIT UTRECHT HOLDING B.V., priority 2015, published 2017).

This assay in a line: Lipid II-binding in model membranes (carboxyfluorescein efflux from LUVs). It counts as biochemical. The conditions noted are these: concentration of 5 nM; CF-loaded DOPC LUVs with 0.2% lipid II. How it is done: Large unilamellar vesicles (LUVs), composed of 1,2-dioleoyl-sn-glycero-3-phosphocholine (DOPC) spiked with 0.2% lipid II, were loaded with carboxyfluorescein (CF). The CF efflux was monitored by measuring the increase in fluorescence intensity at 515 nm, with excitation at 492 nm. In a cuvette, a solution (1 mL) of CF-loaded vesicles (20 μM final concentration) in buffer (Tris.HCl, pH 7.0 containing 100 mM NaCl) was prepared and the relevant final concentration of compounds (6), (10), and (12), and also compound (24) with R1-group (e), were added and the mixture was stirred for 1 min and the fluorescence was recorded (A0). After ca. 10 seconds, nisin (comparative compound B) was added (5 nM final concentration) and the fluorescence was followed until it stabilized, then recorded (Astable). Total membrane leakage was induced by the addition of Triton-X100 (final concentration 0.1%) and the fluorescence was recorded (Atotal). The percentile values were calculated by: […]

As for nisin [Compound B], the “leakage of the CF dye” value is “about 50%”.
